The values that follow come from PMC13366236 (Acta Pharmaceutica Sinica. B, 2025).

One assay deals with mTOR (Homo sapiens, UniProt P42345). In words: mTOR kinase inhibition, Lance Ultra assay. Type of assay: biochemical. To be noted: for IC50: mTOR, IC50, mean ± SD of triplicate measurements.
Assay [1] deals with MDA-MB-231 cells. In words: Cell viability CCK-8 assay. Type of assay: cell-based, human. To be noted: Homo sapiens, MDA-MB-231, 48 h, read-out: Antiproliferative IC50 ± SD.
The test system of a further assay is MCF-7 cells. In words: Cell viability CCK-8 assay. The following applies: Homo sapiens, MCF7, 48 h, read-out: Antiproliferative IC50 ± SD. Type of assay: cell-based. For orientation: Tetrazolium assays rely on reduction of a dye to a coloured formazan, in cell work by metabolically active cells.
Another assay concerns HCT-116 cells. In words: Cell viability CCK-8 assay. Format: cell-based. To be noted: Homo sapiens, HCT-116, 48 h, read-out: Antiproliferative IC50 ± SD.
The subject of a further assay is MDA-MB-436 cells. In words: Cell viability CCK-8 assay. Type of assay: cell-based. To be noted: Homo sapiens, MDA-MB-436, 48 h, read-out: Antiproliferative IC50 ± SD.
Another assay concerns the target PI3Kα (Homo sapiens, UniProt P42336). In words: biochemical.
In the next assay the target is PI3Kβ (Homo sapiens, UniProt P42338). In words: biochemical.
The next assay addresses PI3Kγ (Homo sapiens, UniProt P48736). In words: biochemical.
The next assay addresses PI3Kδ (Homo sapiens, UniProt O00329). In words: biochemical.
A further assay concerns the target CYP 1A2 (Homo sapiens, UniProt P05177). In words: CYP enzyme inhibition.
The target in the next assay is CYP 2C9 (Homo sapiens, UniProt P11712). In words: CYP enzyme inhibition. To be noted: CYP 2C9 IC50.
Another assay addresses CYP 2C19 (Homo sapiens, UniProt P33261). In words: CYP enzyme inhibition. The following applies: CYP 2C19 IC50.
The target in another assay is CYP 2D6 (Homo sapiens, UniProt P10635). In words: CYP enzyme inhibition. The following applies: CYP 2D6 IC50.
Another assay concerns the target CYP 3A4 (Homo sapiens, UniProt P08684). In words: CYP enzyme inhibition. To be noted: CYP 3A4 IC50.
In a further assay the test system is MDA-MB-231 xenograft. In words: MDA-MB-231 xenograft tumor model. Type of assay: in vivo, female BALB/c nude mice. To be noted: i.v., Day 15; for Tumor size: mean ± SEM.
Assay [2] concerns MDA-MB-231 cells. In words: Wound healing. Format: cell-based, human. The following applies: MDA-MB-231, 0.25, 0.5, 1.0 μmol/L, concentration-dependent.
The subject of assay [3] is MDA-MB-231 cells. In words: Colony formation assay. Format: cell-based, human. To be noted: MDA-MB-231, 0.05, 0.1, 0.5 μmol/L.
Assay [4] relates to MDA-MB-231 cells. In words: Apoptosis, Annexin V-AF647/7AAD flow cytometry. Format: cell-based, human. The following applies: MDA-MB-231, 2 μmol/L, 24 h. In general terms: Flow cytometry measures light scatter and fluorescence of single cells or particles in a stream.

Marks after values point to notes of the source that are not given here.

PI3Kδ, sequence (O00329 whole entry): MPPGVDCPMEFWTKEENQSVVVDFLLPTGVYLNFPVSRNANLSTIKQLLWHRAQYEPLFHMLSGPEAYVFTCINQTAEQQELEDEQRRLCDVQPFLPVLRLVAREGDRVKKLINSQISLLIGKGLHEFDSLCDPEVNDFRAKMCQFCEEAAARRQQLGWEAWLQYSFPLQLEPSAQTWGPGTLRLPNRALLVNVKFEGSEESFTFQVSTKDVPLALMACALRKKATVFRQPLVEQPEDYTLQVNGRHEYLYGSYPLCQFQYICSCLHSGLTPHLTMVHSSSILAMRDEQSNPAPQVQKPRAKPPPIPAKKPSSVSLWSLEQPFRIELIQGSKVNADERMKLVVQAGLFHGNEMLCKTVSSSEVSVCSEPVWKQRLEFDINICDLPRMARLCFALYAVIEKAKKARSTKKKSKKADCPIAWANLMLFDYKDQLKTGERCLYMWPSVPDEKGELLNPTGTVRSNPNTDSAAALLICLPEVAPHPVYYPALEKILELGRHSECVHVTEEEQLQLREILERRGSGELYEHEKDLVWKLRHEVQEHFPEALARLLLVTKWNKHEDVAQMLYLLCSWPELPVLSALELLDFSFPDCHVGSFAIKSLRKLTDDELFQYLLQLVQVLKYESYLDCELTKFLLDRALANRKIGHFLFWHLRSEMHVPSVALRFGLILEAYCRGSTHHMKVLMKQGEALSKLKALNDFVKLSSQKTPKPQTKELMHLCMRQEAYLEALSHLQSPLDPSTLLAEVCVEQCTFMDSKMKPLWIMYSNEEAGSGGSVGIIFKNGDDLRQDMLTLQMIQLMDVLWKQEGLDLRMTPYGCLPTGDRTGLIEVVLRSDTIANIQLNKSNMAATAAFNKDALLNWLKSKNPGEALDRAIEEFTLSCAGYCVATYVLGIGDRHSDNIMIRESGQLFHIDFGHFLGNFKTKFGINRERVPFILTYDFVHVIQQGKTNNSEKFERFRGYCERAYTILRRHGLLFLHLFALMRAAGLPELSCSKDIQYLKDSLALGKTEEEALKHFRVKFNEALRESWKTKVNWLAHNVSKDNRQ
PI3Kδ, sequence (P27986 whole entry partner): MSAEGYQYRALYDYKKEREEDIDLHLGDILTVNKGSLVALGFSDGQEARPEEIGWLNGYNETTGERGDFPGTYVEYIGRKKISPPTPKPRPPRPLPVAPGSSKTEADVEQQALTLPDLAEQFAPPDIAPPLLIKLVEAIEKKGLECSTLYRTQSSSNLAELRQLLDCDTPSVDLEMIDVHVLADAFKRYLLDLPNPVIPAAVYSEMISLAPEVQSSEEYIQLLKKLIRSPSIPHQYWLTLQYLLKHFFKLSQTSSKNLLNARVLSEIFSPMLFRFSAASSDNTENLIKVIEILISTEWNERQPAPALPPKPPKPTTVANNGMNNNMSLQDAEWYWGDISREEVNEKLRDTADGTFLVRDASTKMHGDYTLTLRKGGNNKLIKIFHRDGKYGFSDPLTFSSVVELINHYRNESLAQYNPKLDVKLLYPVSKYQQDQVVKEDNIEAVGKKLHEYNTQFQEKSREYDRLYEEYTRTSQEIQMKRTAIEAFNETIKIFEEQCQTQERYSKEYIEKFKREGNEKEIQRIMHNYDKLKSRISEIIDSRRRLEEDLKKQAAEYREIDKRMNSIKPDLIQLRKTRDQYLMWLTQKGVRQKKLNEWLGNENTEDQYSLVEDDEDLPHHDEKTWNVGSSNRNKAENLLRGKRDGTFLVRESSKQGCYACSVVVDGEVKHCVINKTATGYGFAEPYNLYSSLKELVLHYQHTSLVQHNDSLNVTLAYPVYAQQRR
PI3Kα, sequence (P42336 whole entry): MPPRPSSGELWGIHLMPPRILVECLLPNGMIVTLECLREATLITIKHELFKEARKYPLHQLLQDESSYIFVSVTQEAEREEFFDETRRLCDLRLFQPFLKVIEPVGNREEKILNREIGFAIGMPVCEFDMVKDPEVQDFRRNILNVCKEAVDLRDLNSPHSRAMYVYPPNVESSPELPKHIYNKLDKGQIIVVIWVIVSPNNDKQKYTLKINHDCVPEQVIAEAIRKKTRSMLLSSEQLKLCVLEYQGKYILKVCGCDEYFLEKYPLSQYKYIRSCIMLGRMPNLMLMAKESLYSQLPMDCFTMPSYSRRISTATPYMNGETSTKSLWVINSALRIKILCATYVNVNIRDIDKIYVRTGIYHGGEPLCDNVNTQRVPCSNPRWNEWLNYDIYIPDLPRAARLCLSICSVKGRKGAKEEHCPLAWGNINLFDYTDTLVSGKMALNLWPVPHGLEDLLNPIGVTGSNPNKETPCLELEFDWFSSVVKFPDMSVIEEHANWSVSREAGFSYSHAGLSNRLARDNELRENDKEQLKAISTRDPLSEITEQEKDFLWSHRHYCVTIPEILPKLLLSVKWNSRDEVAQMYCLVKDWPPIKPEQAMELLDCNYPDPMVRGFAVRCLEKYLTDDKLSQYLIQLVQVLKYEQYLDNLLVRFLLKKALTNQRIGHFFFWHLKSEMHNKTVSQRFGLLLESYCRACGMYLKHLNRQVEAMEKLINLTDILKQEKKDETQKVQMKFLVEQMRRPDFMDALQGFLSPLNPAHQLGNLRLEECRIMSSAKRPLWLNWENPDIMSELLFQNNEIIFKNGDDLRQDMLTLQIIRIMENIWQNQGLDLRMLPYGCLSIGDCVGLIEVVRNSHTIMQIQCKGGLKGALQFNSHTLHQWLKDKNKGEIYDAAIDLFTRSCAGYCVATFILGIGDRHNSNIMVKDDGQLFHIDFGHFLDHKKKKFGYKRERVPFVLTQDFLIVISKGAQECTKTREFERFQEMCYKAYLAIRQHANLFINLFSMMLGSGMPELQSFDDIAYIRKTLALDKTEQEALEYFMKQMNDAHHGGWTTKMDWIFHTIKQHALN
PI3Kα, sequence (P27986 whole entry partner): as the sequence (P27986 whole entry partner) above
CYP 2C19, sequence (P33261 whole entry): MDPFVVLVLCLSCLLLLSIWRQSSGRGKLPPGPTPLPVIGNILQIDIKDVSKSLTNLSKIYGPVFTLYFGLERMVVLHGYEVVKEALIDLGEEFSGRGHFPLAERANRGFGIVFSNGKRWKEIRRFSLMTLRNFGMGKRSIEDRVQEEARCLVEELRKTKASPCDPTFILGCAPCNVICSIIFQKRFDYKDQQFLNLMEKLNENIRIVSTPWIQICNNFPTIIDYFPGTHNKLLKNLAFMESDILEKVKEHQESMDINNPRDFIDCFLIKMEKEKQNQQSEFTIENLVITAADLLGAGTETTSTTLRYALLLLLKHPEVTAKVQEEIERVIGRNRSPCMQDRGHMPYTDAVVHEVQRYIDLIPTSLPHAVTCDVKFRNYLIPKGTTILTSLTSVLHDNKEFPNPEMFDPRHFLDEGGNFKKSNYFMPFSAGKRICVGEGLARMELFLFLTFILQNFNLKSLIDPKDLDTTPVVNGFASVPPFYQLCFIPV
PI3Kβ, sequence (P42338 whole entry): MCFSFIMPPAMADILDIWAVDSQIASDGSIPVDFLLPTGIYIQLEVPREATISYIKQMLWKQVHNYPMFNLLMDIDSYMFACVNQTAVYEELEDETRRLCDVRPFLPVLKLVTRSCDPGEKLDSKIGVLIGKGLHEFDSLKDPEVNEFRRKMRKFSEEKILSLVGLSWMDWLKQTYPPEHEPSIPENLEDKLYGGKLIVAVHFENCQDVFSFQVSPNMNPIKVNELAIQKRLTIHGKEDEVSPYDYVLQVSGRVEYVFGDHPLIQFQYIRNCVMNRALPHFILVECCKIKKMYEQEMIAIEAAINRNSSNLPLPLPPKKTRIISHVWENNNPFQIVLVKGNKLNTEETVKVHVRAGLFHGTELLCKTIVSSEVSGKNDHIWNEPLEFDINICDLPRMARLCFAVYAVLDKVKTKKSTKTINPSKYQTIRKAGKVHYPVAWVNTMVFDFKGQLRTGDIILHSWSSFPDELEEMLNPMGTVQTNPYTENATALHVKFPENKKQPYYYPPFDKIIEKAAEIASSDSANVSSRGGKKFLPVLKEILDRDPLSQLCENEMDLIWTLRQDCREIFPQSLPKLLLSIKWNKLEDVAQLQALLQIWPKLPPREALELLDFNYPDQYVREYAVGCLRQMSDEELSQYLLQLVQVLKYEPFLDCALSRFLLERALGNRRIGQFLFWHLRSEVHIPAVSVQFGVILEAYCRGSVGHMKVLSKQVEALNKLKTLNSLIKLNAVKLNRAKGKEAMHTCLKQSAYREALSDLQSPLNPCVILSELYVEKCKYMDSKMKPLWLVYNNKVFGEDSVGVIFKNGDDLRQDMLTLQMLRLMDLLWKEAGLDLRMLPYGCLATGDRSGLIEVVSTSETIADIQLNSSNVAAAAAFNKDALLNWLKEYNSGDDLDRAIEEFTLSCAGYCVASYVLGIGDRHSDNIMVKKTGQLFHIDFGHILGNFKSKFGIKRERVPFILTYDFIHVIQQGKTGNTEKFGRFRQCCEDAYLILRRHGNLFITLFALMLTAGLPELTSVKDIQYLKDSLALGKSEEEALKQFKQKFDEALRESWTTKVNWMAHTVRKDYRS
PI3Kβ, sequence (P27986 whole entry partner): as the sequence (P27986 whole entry partner) above
CYP 1A2, sequence (P05177 whole entry): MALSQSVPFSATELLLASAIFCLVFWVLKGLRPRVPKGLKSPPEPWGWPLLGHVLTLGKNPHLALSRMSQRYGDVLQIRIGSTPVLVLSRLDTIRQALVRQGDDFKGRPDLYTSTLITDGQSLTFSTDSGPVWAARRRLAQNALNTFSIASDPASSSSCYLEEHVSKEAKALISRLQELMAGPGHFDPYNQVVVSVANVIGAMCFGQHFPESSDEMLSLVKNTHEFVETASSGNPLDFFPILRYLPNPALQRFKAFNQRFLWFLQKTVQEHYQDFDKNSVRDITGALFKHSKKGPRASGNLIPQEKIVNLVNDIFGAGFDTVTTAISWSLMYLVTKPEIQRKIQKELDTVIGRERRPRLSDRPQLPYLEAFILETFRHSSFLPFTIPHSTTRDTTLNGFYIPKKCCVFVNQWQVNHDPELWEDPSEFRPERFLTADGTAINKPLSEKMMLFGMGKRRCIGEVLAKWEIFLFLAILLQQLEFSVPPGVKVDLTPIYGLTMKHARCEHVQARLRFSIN

Turning to `NCCC(=O)Nc1ccccc1/N=c1\cc(-c2ccc3nc(N)oc3c2)oc2ccccc12` [Compound 12a, (E)-3-amino-N-(2-((2-(2-aminobenzo[d]oxazol-6-yl)-4H-chromen-4-ylidene)amino)phenyl)propanamide], the IC50 on mTOR was 45.2 ± 8.8 nM; with MDA-MB-231 cells [1], 337 ± 12.8 nM; in the assay on MCF-7 cells, 118 ± 63.6 nM; in the assay with HCT-116 cells, 1510 ± 361 nM; in the assay on MDA-MB-436 cells, 498 ± 18.1 nM; against PI3Kα it was greater than 10000 nM. Also, the IC50 on PI3Kβ is greater than 10000 nM; against PI3Kγ it was greater than 10000 nM; on PI3Kδ, greater than 10000 nM; against CYP 1A2, greater than 50000 nM; on CYP 2C9 it was 140 nM; against CYP 2C19 it was 680 nM. Also, the IC50 against CYP 2D6 was 5520 nM; against CYP 3A4 it was 7860 nM. For the same compound, at mTOR (vs MT-1), the “fold more potent than the lead compound MT-1 (mTOR IC50)” value came to 34 fold.

For `CNCCC(=O)Nc1ccccc1/N=c1\cc(-c2ccc3nc(N)oc3c2)oc2ccccc12` [Compound 12c, (E)-N-(2-((2-(2-aminobenzo[d]oxazol-6-yl)-4H-chromen-4-ylidene)amino)phenyl)-3-(methylamino)propanamide], the IC50 against mTOR amounted to 473 ± 42.4 nM; in the assay on MDA-MB-231 cells [1] it was 104 ± 3.3 nM; in the assay with MCF-7 cells, 1316 ± 6.4 nM; in the assay with HCT-116 cells, 900.5 ± 5.5 nM; in the assay with MDA-MB-436 cells, 566 ± 9.1 nM.

On to `Nc1nc2ccc(-c3c/c(=N\c4ccccc4NC(=O)C4CCNC4)c4ccccc4o3)cc2o1` (stereo not drawn) [Compound 12i, (E)-N-(2-((2-(2-aminobenzo[d]oxazol-6-yl)-4H-chromen-4-ylidene)amino)phenyl)pyrrolidine-3-carboxamide], for which the IC50 came out at 165 ± 8.1 nM at mTOR, 285 ± 425 nM in the assay with MDA-MB-231 cells [1], 1487 ± 2.8 nM in the assay on MCF-7 cells and 313200 ± 5.7 nM in the assay with HCT-116 cells.

For `NCCC(=O)Nc1ccccc1/N=c1\cc(-c2ccc3nc(N)oc3c2)oc2ccc(F)cc12` [Compound 12k, (E)-3-amino-N-(2-((2-(2-aminobenzo[d]oxazol-6-yl)-6-fluoro-4H-chromen-4-ylidene)amino)phenyl)propanamide], the IC50 at mTOR worked out at 166 ± 6.3 nM; in the assay with MDA-MB-231 cells [1], 125 ± 5.9 nM; in the assay with MCF-7 cells, 211 ± 87.7 nM; in the assay with HCT-116 cells it was 307.9 ± 2.2 nM; in the assay with MDA-MB-436 cells, 112 ± 62.3 nM.

For `NCCC(=O)Nc1ccccc1/N=c1\cc(-c2ccc3nc(N)oc3c2)oc2cc(O)ccc12` [Compound 12m, (E)-3-amino-N-(2-((2-(2-aminobenzo[d]oxazol-6-yl)-7-hydroxy-4H-chromen-4-ylidene)amino)phenyl)propanamide], the IC50 against mTOR was 40.2 ± 1 nM; in the assay with MDA-MB-231 cells [1], greater than 10000 nM; in the assay with MCF-7 cells, greater than 10000 nM; in the assay on HCT-116 cells, greater than 10000 nM; in the assay with MDA-MB-436 cells, greater than 10000 nM.

Consider `NCCC(=O)Nc1ccccc1/N=c1\cc(-c2ccc3nc(N)oc3c2)oc2ccc(O)cc12` [Compound 12n, (E)-3-amino-N-(2-((2-(2-aminobenzo[d]oxazol-6-yl)-6-hydroxy-4H-chromen-4-ylidene)amino)phenyl)propanamide], for which the IC50 against mTOR turned out to be 26.3 ± 0.2 nM; in the assay on MDA-MB-231 cells [1], 1770 ± 473 nM; in the assay with MCF-7 cells, 547 ± 679 nM; with HCT-116 cells, 1570 ± 132 nM. The “fold more potent than 12a (mTOR IC50)” value on mTOR (vs 12a) amounted to 1.72 fold.

Take `COc1cccc2c1C(=O)c1c(O)c3c(c(O)c1C2=O)C[C@@](O)(C(=O)CO)C[C@@H]3O[C@H]1C[C@H](N)[C@H](O)[C@H](C)O1` [Doxorubicin, reference compound]: the IC50 in the assay on MDA-MB-231 cells [1] was 75.6 nM. For the same compound, in the assay on MDA-MB-231 xenograft (2.5 mg/kg, Q7D × 2), the T/C is recorded as 31.82%, the TGI is 68.18 ^d % and the Tumor size is 115.17 ± 32.95 mm^3.

For `Oc1cccc(-c2nc(N3CCOCC3)c3oc4ncccc4c3n2)c1` [PI-103, reference compound], the IC50 is greater than 10000 nM in the assay with MDA-MB-231 cells [1], 2790 ± 346 nM in the assay on MCF-7 cells, greater than 10000 nM with HCT-116 cells and greater than 10000 nM in the assay on MDA-MB-436 cells. For the same compound, in the assay with MDA-MB-231 cells [2], the “anti-migration effect” value is “significantly inhibit the migration”. Besides, the “colony formation ability” value with MDA-MB-231 cells [3] is “significantly inhibited”. The “percentage of total apoptotic cells” value in the assay with MDA-MB-231 cells [4] is recorded as 4.47%. Besides, the T/C with MDA-MB-231 xenograft (20 mg/kg, Q3D × 6) turned out to be 61.36%. Further, in the assay on MDA-MB-231 xenograft (20 mg/kg, Q3D × 6), the TGI is given as 38.64 ^d %. In the assay with MDA-MB-231 xenograft (20 mg/kg, Q3D × 6), this compound displayed a Tumor size of 256.59 ± 40.06 mm^3.

Take `CC(=O)O[C@H]1C(=O)[C@@]2(C)[C@H]([C@H](OC(=O)c3ccccc3)[C@]3(O)C[C@H](OC(=O)[C@H](O)[C@@H](NC(=O)c4ccccc4)c4ccccc4)C(C)=C1C3(C)C)[C@]1(OC(C)=O)CO[C@@H]1C[C@@H]2O` [Paclitaxel, reference compound]: in the assay on MDA-MB-231 cells [1], the IC50 worked out at 3862 ± 13.2 nM.

Usually IC50 stands for the concentration that inhibits the measured activity by half. As a reminder, the T/C is the result in the treated group divided by that in the control group, in per cent.
